Where two headings read alike, the source gives them in different places.

The test system of test [1] is human perception of TMA odor ("fishy"). Kind of test: Human perceptual ratings of fishiness of TMA with antagonist or control odor (air-dilution olfactometer). The format is in vivo. To be noted: human subjects, TMA 3 mM, 1 mM, 0.33 mM, odors intensity-balanced to 1 mM TMA. The method, then:
We evaluated the efficacy of the in vitro antagonists on human perception. We asked 10 (FIG. 5A) or 29 (FIG. 5B) subjects to rate how “fishy” and how “pleasant” an odor was. The odors were delivered to the subject using an air-dilution olfactometer (Lundström, J. N., et al., 2010 International Journal of Psychophysiology, 78(2), 179-189; doi:10.1016/j.ijpsycho.2010.07.007) and each trial consisted of one concentration of trimethylamine (either 3 mM, 1 mM, 0.33 mM, or a water blank) combined with either an antagonist or a solvent blank. Subjects used a general labeled magnitude scale to rate how “fishy” the odor smelled and a scale from −10 to +10 to rate the pleasantness.
The antagonists and control odors were intensity-balanced to match the 1 mM concentration of TMA. Trans-2-nonen-1-ol was diluted in Diethyl phthalate (DEP); TMA was diluted in water with NaOH added; Linalool was diluted in DEP. In all trials subjects received air from jars containing water and DEP so that solvent presence could not be used as a cue to the presence of the test odor.

Test [2] deals with T1, TAAR5 (Homo sapiens, UniProt O14804).
T1 sequence (O14804 1-337): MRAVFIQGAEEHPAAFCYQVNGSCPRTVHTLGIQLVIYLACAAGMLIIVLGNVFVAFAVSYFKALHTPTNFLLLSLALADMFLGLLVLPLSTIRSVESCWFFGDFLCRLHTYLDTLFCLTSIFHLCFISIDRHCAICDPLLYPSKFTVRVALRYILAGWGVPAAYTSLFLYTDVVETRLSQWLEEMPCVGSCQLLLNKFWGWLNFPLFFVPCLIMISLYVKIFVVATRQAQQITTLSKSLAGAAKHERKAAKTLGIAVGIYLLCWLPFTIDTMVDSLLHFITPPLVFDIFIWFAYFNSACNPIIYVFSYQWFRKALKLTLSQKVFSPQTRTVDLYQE
Kind of test: Antagonist screen of odor library on TAAR5 with agonist TMA (Dual-Glo luciferase assay, Hana3A cells). To be noted: inhibition of TMA/TAAR5 response; test odor at 30 μM; TMA at EC80; read-out: Percent Inhibition. Details: TAAR open reading frames were amplified from pooled human genomic DNA using Phusion polymerase and subcloned into a pCI expression vector; Rho tag (first 20 residues of human rhodopsin); expressed in transfected cells; host or cells: Hana3A cells. The format is cell-based. As to the method: We screened a TAAR of interest, TAAR5, with the agonist TMA added at the EC80 concentration, against a proprietary small-molecule library to identify antagonists. TAAR open reading frames were amplified from pooled human genomic DNA using Phusion polymerase and subcloned into a pCI expression vector (Promega) containing the first 20 residues of human rhodopsin (Rho tag). […] Hana3A cells were transfected with 5 ng/well of RTP1S, 5 ng/well of pRL-SV40, 10 ng/well of CRE-luciferase, 2.5 ng/well of M3, and 5 ng/well of odorant receptor. 1M odorant stocks were diluted in DMSO. 24 hours following transfection, transfection media was removed and replaced with the appropriate concentration of odor diluted from the 1M stocks in CD293 (Gibco). Four hours following odor stimulation luminescence was measured using a Synergy 2 plate reader (Biotek). All luminescence values were divided by the Renilla Luciferase activity to control for transfection efficiency in a given well.
We completed an antagonist screen of a proprietary library of odors, including the 52 odorous compounds identified in FIG. 4 at a concentration of 30 μM.

The target in test [3] is T1, TAAR5. Kind of test: Dose responses on TAAR5 in luciferase assay (antagonist dose-dependent inhibition with TMA at EC80; TMA dose response with antagonist at IC10, IC30, IC50). Type of test: cell-based. Details: TAAR open reading frames were amplified from pooled human genomic DNA using Phusion polymerase and subcloned into a pCI expression vector; Rho tag (first 20 residues of human rhodopsin); expressed in transfected cells; host or cells: Hana3A cells. To be noted: for IC10 concentration of antagonist: lowest of the three concentrations in FIG. 2; for IC30 concentration of antagonist: middle of the three concentrations in FIG. 2. The source says: We screened a TAAR of interest, TAAR5, with the agonist TMA added at the EC80 concentration, against a proprietary small-molecule library to identify antagonists. TAAR open reading frames were amplified from pooled human genomic DNA using Phusion polymerase and subcloned into a pCI expression vector (Promega) containing the first 20 residues of human rhodopsin (Rho tag). The sequences of the cloned receptors were verified by sequencing (3730xl Sequencer, ABI Biosystems). We used the Dual-Glo™ Luciferase Assay System (Promega) to measure receptor responses as previously described in Trimmer, C. et al 2014 High-throughput Analysis of Mammalian Olfactory Receptors: Measurement of Receptor Activation via Luciferase Activity. Journal of Visualized Experiments, (88). doi:10.3791/51640. Hana3A cells were transfected with 5 ng/well of RTP1S, 5 ng/well of pRL-SV40, 10 ng/well of CRE-luciferase, 2.5 ng/well of M3, and 5 ng/well of odorant receptor. 1M odorant stocks were diluted in DMSO. 24 hours following transfection, transfection media was removed and replaced with the appropriate concentration of odor diluted from the 1M stocks in CD293 (Gibco). Four hours following odor stimulation luminescence was measured using a Synergy 2 plate reader (Biotek). All luminescence values were divided by the Renilla Luciferase activity to control for transfection efficiency in a given well.
In a secondary experiment, we ran dose dependent inhibition responses for the top twelve antagonists, i.e., the top 12 compounds identified in FIG. 4. TMA was kept at the EC80 (500 μM) and the twelve antagonists were diluted in a dose response with the highest concentration at 1000 μM. The top five candidate compounds, i.e., phenethyl benzoate, trans-2-nonen-1-ol, isoeugenyl phenlacetate, tributyl-2-acetylcitrate, bis(2-methyl-3-furyl)disulfide, were rescreened using an antagonist dose response at 2500 μM. We determined the IC80 values for those five antagonists. Using those IC80 values, we completed a 3-fold dilution dose response of TMA, starting at 3000 μM, in the presence of our five candidate antagonists. […] It was difficult to determine if the five antagonists were competitive or non-competitive inhibitors using the very high IC80 concentrations of the antagonists.
In another experiment, we evaluated dose responses of TMA in the presence of the antagonist at their IC10, IC30 and IC50 concentrations.

For test [4], the target named is T1, TAAR5. The following applies: cited from earlier work.
For test [5], the system named is human perception of TMA odor (mixture suppression). Kind of test: Split-nostril experiment, physical vs dichorhinic mixtures with TMA. The format is in vivo. To be noted: human subjects, TMA with probe odorant. An excerpt:
Mixture suppression has both a central and peripheral component (Laing, D., & Willcox, M. (1987). An investigation of the mechanisms of odor suppression using physical and dichorhinic mixtures. Behavioural Brain Research, 26(2-3), 79-87. http://doi.org/10.1016/0166-4328(87)90157-4). […] To test this we carried out split-nostril experiments using stimuli in glass jars. We compared TMA-alone, TMA mixed with the probe odorant in the same nostril (physical mixture), and TMA mixed with the probe odorant in different nostrils (dichorhinic mixture) (FIG. 7). […] Subjects were instructed to make intensity judgements during inhalation to avoid retronasal contamination across nostrils. This allowed us to separate central and peripheral components of the mixture suppression.

By inhibition is commonly meant the change of the read-out against control, counted positive when it falls. `C/C=C/c1ccc(OC(=O)Cc2ccccc2)c(OC)c1` [Isoeugenyl phenylacetate]: the “effect on perceived fishy rating of TMA” value in test [1] (listed as Isoeugenyl Phenylacetate) is given as “showed a similar pattern”. Besides, the “effect on perceived fishy rating of TMA” value in test [1] (listed as isoeugenyl phenylacetate) is given as “decreases fishy intensity”. Further, the inhibition at 30 µM at TAAR5 [2] is 89.1%. Besides, the IC50 on TAAR5 [3] was determined as 703 µM. Moreover, on TAAR5 [3] (TAAR5 luciferase, vs TMA), the “IC10 concentration of antagonist” value is 100 µM and the “IC30 concentration of antagonist” value is 316.22 µM.

Take `CN(C)C` [TMA, trimethylamine, reference compound]: on TAAR5 [4], the “activation of human TAAR5” value is listed as “activated in a concentration-dependent manner”. The “EC80 of agonist on TAAR5” value on TAAR5 [3] (TAAR5 luciferase) came out at 500 µM.

For `CCCCCC/C=C/CO` [Trans-2-Nonen-1-ol], in test [1] (listed as Trans-2-nonen-1-ol), the “effect on perceived fishy rating of TMA” value is on record as “significantly decreased the perceived fishy rating”. Moreover, in test [1] (listed as trans-2-nonen-1-ol), the “effect on perceived fishy rating of TMA” value is recorded as “decreases fishy intensity”. Further, the “peripheral component of mixture suppression” value in test [5] is “larger peripheral component of mixture suppression than the control odorant linalool”. In addition, the inhibition at 30 µM on TAAR5 [2] was 89.3%. Also, the IC50 on TAAR5 [3] (TAAR5 luciferase, vs TMA, highest of the three concentrations in FIG. 2, read-out: IC50 concentration of antagonist) worked out at 703 µM. At TAAR5 [3] (TAAR5 luciferase, vs TMA), the “IC10 concentration of antagonist” value worked out at 100 µM and the “IC30 concentration of antagonist” value was 316.22 µM.

The values are drawn from patent publication US20180021467A1, “METHOD OF BLOCKING PERCEPTION OF MALODOR” (Monell Chemical Senses Center, priority 2015, published 2018).
